Test results: patent US20260317308A1, “A SEQUENCE SELECTIVE DNA BINDING MOLECULE (SYNGRADER)” (ST. JUDE CHILDREN'S RESEARCH HOSPITAL, INC., priority 2023, published 2026)

Tests used:
TCF3-PBX1-HaloTag = test: P2RY10 luciferase reporter assay in HEK293T cells expressing Doxycycline-inducible TCF3-PBX1-HaloTag; format: cell-based, human
Experimental: Cells were transfected with P2RY10-Luciferase reporter plasmid DNA which contains the 282 bp P2RY10 promoter sequence cloned downstream of a minimal TATA box promoter. After 24 hours, the cells were treated with 0.70 and 1.0 μM PBX-SynTEF2 (SnTF2), SynTEF-PBX-DRG1 (DRG1), and SynTEF-PBX-DRG2 (DRG2). The SynTEF-PBX-DRG1 compound carries the Thalidomide ligand for recruitment of the Cerbelon E3-Ligase, and SynTEF-PBX-DRG2 has a VHL ligand for the recruitment of the VHL E3-Ligase. Doxycycline (DOX) was added at 0.1 ug/mL concentration to induce TCF3-PBX1-HaloTag expression, and 48 hours after DOX addition, NanoGlo Luciferase expression (Promega) was measured in the medium (Luciferase protein is secreted by the cells). Luciferase activity was calculated as Fold Change compared to “DMSO without DOX” control cells (purple bar), Error bars: Standard deviation. N>6 biological replicates.

[1] = tested on: NALM6 (N6) Acute Lymphoblastic Leukemia (ALL) B cells expressing TCF3-PBX1-HaloTag; test: Cell viability assay (CellTiterGlo) in NALM6 ALL cells with Doxycycline-inducible TCF3-PBX1-HaloTag, co-transfected with P2RY10 and CMV luciferase reporter plasmids; format: cell-based; details: for loss in cell viability: loaded on WT TR DNA-Aptamer, vs DMSO no DOX
Experimental: The N6-TCF3-PBX1-HaloTag cells were Nucleofected (Lonza) with P2RY10-Luciferase and CMV promoter Luciferase reporter plasmid DNAs. After 24 hours, cells were treated with either wildtype (WT) or Mutant (MT) Transferrin Receptor (TR) WGGWWW DNA-Aptamers pre-loaded with PBX-SynTEF-FL (SnTF-FL), SynTEF-PBX-DRG1 (DRG1), and SynTEF-PBX-DRG2 (DRG2). The WT and MT DNA-Aptamers contain WGGWWW tail duplex DNA sequences that bind the PBX-SynTEF payloads, but only WT DNA-Aptamers can bind to TR present on the cell surface of NALM6 ALL cells, resulting in TR-mediated cellular internalization of the polyamide compounds. The MT DNA-Aptamer, has a GG to AA dinucleotide substitution which prevents binding to the TR (*see Cheng et al, 2022). Thus, cells treated with the MT DNA-Aptamer-SynTEF complexes serve as negative controls, since without a functional Aptamer, it is unlikely that the polyamides are taken up by the NALM6 cells. Doxycycline (DOX) was added at 0.1 ug/mL concentration to induce TCF3-PBX1-HaloTag expression, and 48 hours after DOX addition, cell viability was measured using CellTiterGlo reagent (Promega) which detects ATP present only in live cells. CellTiterGlo activity was calculated as Fold Change compared to “DMSO no DOX” treated cells which had the highest cell viability (dark blue bars). Error bars: Standard deviation. N>6 biological replicates.

**Q.** With `CSCCC(NC(=O)C(Cc1c[nH]c2ccccc12)NC(=O)C1CCCN1C(=O)C(Cc1ccc(O)cc1)NC(=O)C(Cc1ccccc1)NC(C)=O)C(=O)NC(CCCCNC(=O)CCOCCOCCOCCOCCOc1cccc2c1C(=O)N(C1CCC(=O)NC1=O)C2=O)C(=O)NCC(=O)NCCOCCOCCOCCC(=O)NCCCN(C)CCCNC(=O)CCNC(=O)c1cc(NC(=O)c2cc(NC(=O)c3cc(NC(=O)c4cc(NC(=O)CCCNC(=O)c5cc(NC(=O)c6cc(NC(=O)c7nc(NC(=O)c8nccn8C)cn7C)cn6C)cn5C)cn4C)cn3C)cn2C)cn1C` (stereo not drawn) [SynTEF-PBX-DRG1] as the molecule, how does the “further increase of Luciferase expression above DMSO plus DOX baseline (in words)” value (TCF3-PBX1-HaloTag; both 0.70 and 1.0 μM, with DOX) read?
**A.** fail to further increase Luciferase expression

**Q.** What about the “activity of the oncogenic TCF3-PBX1 fusion in cell-based reporters (in words)” value (TCF3-PBX1-HaloTag; cell-based reporters) of the same molecule?
**A.** reduced activity

**Q.** And the “toxicity to the cells (in words)” value ([1]; NALM6 cells, without DOX)?
**A.** toxic to the cells but only when internalized

**Q.** And the “loss in cell viability” value ([1]; with DOX 0.1 ug/mL, 48 h)?
**A.** ~ 85%

**Q.** What about the “cell viability compared to +DOX DMSO and +DOX SynTF-FL cells (in words)” value ([1]; with DOX, loaded on MT DNA-Aptamer (negative control)) of the same molecule?
**A.** comparable viability

**Q.** What about the “loss in cell viability” value ([1]; without DOX, both P2RY10 and CMV nucleofected cells) of the same molecule?
**A.** 70-80%
